Data set [1] in a line: Protein binding, human plasma (ultrafiltration method). The data set is classed as in vitro ADME. The conditions noted are these: human, plasma. How it is done: (§1) Binding of contrast media to proteins of human plasma was determined at a final plasma concentration of 1.2 mg. iodine/ml. using the ultrafiltration method. The novel, nonionic dimer E was bound only to a very minor extent of 1.4±2.4%.

Data set [2] has as its system proteins of human plasma. Described as above. It is filed as in vitro ADME. The note with it: n = 6; 1.2 mg. Iodine/ml.; ultrafiltration. The procedure:
as §1

The nature of data set [3]: Solubility in water. The data set is classed as physicochemical. The note with it: for solubility: water.
For data set [4], the system named is mice. The data set is described as follows: Compatibility after intravenous injection in mice. It is filed as in vivo. The note with it: for Mortality/survival after intravenous injection: 6-10 mice, 10 g. iodine/kg, 300 mg. iodine/ml., 0.8 ml./min. How it is done: 1. Compatibility After Intravenous Injection
Each of 6-10 mice weighing 20-22 g. was injected intravenously with the contrast medium being tested in the form of a solution at a concentration of 300 mg. of iodine/ml., a dosage of 10 g. iodine/kg. and an injection rate of 0.8 ml./min. Ionic agents were given as meglumine salts.

The nature of data set [5]: Osmotic pressure and osmolality of solutions of identical iodine concentration (300 mg. Iodine/ml.). The note with it: at 37° C. The data set is classed as physicochemical. An excerpt: The novel compounds are distinguished from other compounds by a lower diffusibility on account of their size.
Concentration, Osmotic Pressure, and Osmolality of Solutions of Identical

In data set [6] the test system is erythrocytes. The data set is described as follows: Effect of the contrast media on erythrocyte morphology. The note with it: 43 mg. Iodine/ml. Blood; score 0 (intact) to 5 (highest damage).
Experimental: Contrast medium solutions containing 300 mg. iodine/ml. were mixed in a ratio of 1:6 with heparinized blood. The final concentration of the contrast media was 43 mg. iodine/ml. The evaluation criterion was the change of the natural shape of the erythrocytes via echinocytes to spherocytes.
The test system of data set [7] is mice. The data set is described as follows: Compatibility after intravenous injection in mice. The data set is classed as in vivo.
Data set [8] concerns rats. The data set is classed as in vivo. The note with it: 10 rats; 50 mg. iodine/ml.; 0.4 ml./kg. The procedure:
In a further evaluation according to Valzelli, "A Simple Method to Inject Drugs Intracerebrally;" Med. Exp. Vol. 11: 23-26, (1964), each of 10 rats (90-110 g.) were injected intracerebrally with contrast medium solutions of compounds A-E at an iodine concentration of 50 mg./ml. in a dosage of 0.4 ml./kg. Toxic effects of compounds A-D included grave anomalies in posture (attitude), torsional spasms, excitation, and death.

The conditions of data set [9]: background statement; cited from earlier work.
For data set [10] the following is noted: background statement; cited from earlier work. This is another data set of the same source.
[11] abbreviates: n = 6, 1.2 mg. Iodine/ml., ultrafiltration, read-out: Protein Binding Human Plasma (converted).

≈ marks a conversion by molar mass, not a printed value. Like-named read-outs stand apart in the source and are kept apart here.

For orientation: solubility means how much of the substance goes into solution per volume. `CN(CC(O)CO)C(=O)c1c(I)c(NC(=O)C(=O)Nc2c(I)c(C(=O)N(C)CC(O)CO)c(I)c(C(=O)N(C)CC(O)CO)c2I)c(I)c(C(=O)N(C)CC(O)CO)c1I` (stereo not drawn) [Example 1, oxalic acid bis[3,5-bis(2,3-dihydroxypropyl-N-methylcarbamoyl)-2,4,6-triiodoanilide]]: the fraction unbound in data set [1] (setting [11]) is 0.986. Also, in data set [2], the “Protein Binding Human Plasma” value is 1.4±2.4%. The molecule further had a solubility in data set [3] (room temperature) greater than 600 mg/mL. The “Mortality/survival after intravenous injection” value in [4] is “All mice survived”. Moreover, in [5], the Osmolality is given as 175 mOsm/kg . H2 O and the “Osmotic Pressure” value was found to be 4.5 at. The “Effect on Erythrocyte Morphology, Damage Index” value in data set [6] was 0.33. Also, the “Compatibility After i.v. Injection in Mice, LD50” value in [7] is 20 g. Iodine/kg. Further, the “Toxic effects after intracerebral injection” value in [8] is reported as “caused none of these effects in any of the animals”.
The molecule `CN(CC(O)CO)C(=O)c1c(I)c(C(=O)N(C)CC(O)CO)c(I)c(N(C)C(=O)COCC(=O)N(C)c2c(I)c(C(=O)N(C)CC(O)CO)c(I)c(C(=O)N(C)CC(O)CO)c2I)c1I` (stereo not drawn) [Example 8, Oxaglutaric Acid bis[3,5-bis(2,3-Dihydroxypropyl-N-methylcarbamoyl)-2,4,6-triiodo-N-methylanilide]] showed a solubility in [3] greater than 600 mg/mL. Also, the “Effect on Erythrocyte Morphology, Damage Index” value in data set [6] is recorded as 0.09. In addition, the “Compatibility After i.v. Injection in Mice, LD50” value in [7] is 10 g. Iodine/kg.
As to `CN(CC(O)CO)C(=O)c1c(I)c(C(=O)N(C)CC(O)CO)c(I)c(N(C)C(=O)CC(=O)N(C)c2c(I)c(C(=O)N(C)CC(O)CO)c(I)c(C(=O)N(C)CC(O)CO)c2I)c1I` (stereo not drawn) [Example 9, Malonic Acid bis[3,5-bis(2,3-Dihydroxypropyl-N-methylcarbamoyl)-2,4,6-triiodo-N-methylanilide]], the Solubility in water entry in [3] was “more than 60 g./150 ml. of solution”. Besides, in data set [5], the Osmolality turned out to be 197 mOsm/kg . H2 O and the “Osmotic Pressure” value is 5.0 at.
As to `CN(CC(O)CO)C(=O)c1c(I)c(NC(=O)CCCCC(=O)Nc2c(I)c(C(=O)N(C)CC(O)CO)c(I)c(C(=O)N(C)CC(O)CO)c2I)c(I)c(C(=O)N(C)CC(O)CO)c1I` (stereo not drawn) [Example 10, Adipic Acid bis[3,5-bis(2,3-Dihydroxypropyl-N-methylcarbamoyl)-2,4,6-triiodoanilide]], in data set [3], the “Solubility behaviour in words” value is “yields supersaturated solutions” and the solubility was 130 mg/mL (≈ 82.5 mM). In addition, in data set [4] (i.v., mice, determined with supersaturated solution), the “Compatibility After i.v. Injection in Mice, LD50” value came to 30 g. Iodine/kg. Moreover, the “Effect on Erythrocyte Morphology, Damage Index” value in data set [6] was 0.11.
The molecule `O=C(CCCCC(=O)Nc1c(I)c(C(=O)NC(CO)CO)c(I)c(C(=O)NC(CO)CO)c1I)Nc1c(I)c(C(=O)NC(CO)CO)c(I)c(C(=O)NC(CO)CO)c1I` [Example 11, Adipic Acid bis[3,5-bis(1,3-Dihydroxyisopropylcarbamoyl)-2,4,6-triiodoanilide]] had a solubility in data set [3] of less than 1 mg/mL.
Turning to `CN(CC(O)CO)C(=O)c1c(I)c(NC(=O)COCCOCC(=O)Nc2c(I)c(C(=O)N(C)CC(O)CO)c(I)c(C(=O)N(C)CC(O)CO)c2I)c(I)c(C(=O)N(C)CC(O)CO)c1I` (stereo not drawn) [Example 12, 3,6-Dioxasuberic Acid bis[3,5-bis(2,3-Dihydroxypropyl-N-methylcarbamoyl)-2,4,6-triiodoanilide]], in [5], the Osmolality stood at 216 mOsm/kg . H2 O and the “Osmotic Pressure” value stood at 5.5 at. Besides, the “Effect on Erythrocyte Morphology, Damage Index” value in [6] was found to be 0.13. Moreover, the “Compatibility After i.v. Injection in Mice, LD50” value in data set [7] is recorded as 22 g. Iodine/kg.
On to `CC(=O)Nc1c(I)c(NC(C)=O)c(I)c(C(=O)O)c1I` [Meglumine Amidotrizoate], for which the fraction unbound in [1] (setting [11]) is 0.968. In data set [5], the Osmolality was 1520 mOsm/kg . H2 O and the “Osmotic Pressure” value came out at 38.6 at. Further, the “Effect on Erythrocyte Morphology, Damage Index” value in data set [6] came out at 2.57. The “Compatibility After i.v. Injection in Mice, LD50” value in data set [7] came out at 6.5 g. Iodine/kg.
Take `CNC(=O)c1c(I)c(NC(=O)CCCCC(=O)Nc2c(I)c(C(=O)O)c(I)c(C(=O)NC)c2I)c(I)c(C(=O)O)c1I` [Meglumine Iocarmate]: in data set [9], the “Resulting concentration in the urine” value is given as “relatively high resulting concentration in the urine”. Also, in data set [10], the “Osmotic pressure, relative” value is “somewhat lower osmotic pressure”. In data set [1] (setting [11]), the fraction unbound is 0.908. In [5], the Osmolality is 1260 mOsm/kg . H2 O and the “Osmotic Pressure” value is listed as 32.0 at. For the same molecule, the “Effect on Erythrocyte Morphology, Damage Index” value in [6] came to 1.37. The “Compatibility After i.v. Injection in Mice, LD50” value in [7] is given as 6.5 g. Iodine/kg.
`CNC(=O)c1c(I)c(NC(C)=O)c(I)c(C(=O)O)c1I` [Meglumine Iothalamate] showed a fraction unbound in [1] of 0.948. Moreover, in data set [5], the Osmolality stood at 1650 mOsm/kg . H2 O and the “Osmotic Pressure” value came out at 41.9 at. Also, in data set [7], the “Compatibility After i.v. Injection in Mice, LD50” value came out at 6.5 g. Iodine/kg.
In data set [1], `CC(=O)Nc1c(I)c(C(=O)N[C@H]2C(O)O[C@H](CO)[C@@H](O)[C@@H]2O)c(I)c(N(C)C(C)=O)c1I` (stereo partly drawn) [Metrizamide, 2-(3-acetamido-5-N-methylacetamido-2,4,6-triiodobenzamido)-2-deoxy-D-glucose] showed a fraction unbound of 0.938. For the same molecule, the “Mortality/survival after intravenous injection” value in data set [4] is “one animal died”. In addition, in data set [5], the Osmolality stood at 485 mOsm/kg . H2 O and the “Osmotic Pressure” value worked out at 12.3 at. Besides, the “Compatibility After i.v. Injection in Mice, LD50” value in data set [7] is recorded as 14 g. Iodine/kg.

These data come from patent US4239747A, “Dicarboxylic acid bis(3,5-dicarbamoyl-2,4,6-triiodoanilides) useful as x-ray contrast agents” (Schering Aktiengesellschaft, priority 1976, dated 1980).
